Measured values as given in ChEMBL document CHEMBL1144616, “Synthesis and biological evaluation of 7-azaindole derivatives, synthetic cytokinin analogues” (Bioorg Med Chem Lett, 2007).
Calls of active or inactive are those of the source. The calls are words filed in the database; no cut-off is given here.

Experiments:
HL-60 [1] = test: Proapoptotic effect in human HL60 cells at 500 uM; format: functional, cell-based
HL-60 [2] = test: Antiproliferative activity against human HL60 cells; format: functional, cell-based
HL-60 [3] = test: Proapoptotic effect in human HL60 cells at 10 uM; format: functional, cell-based
HL-60 [4] = test: Cell cycle arrest in human HL60 cells assessed as increase in preG1 fraction relative to control; format: functional

For Cn1ccc2c(NCCc3ccccc3)ccnc21, the Activity (HL-60 [1]) was “Active” and the IC50 (HL-60 [2]) was over 100 µM.
With c1ccc(CNc2ccnc3[nH]ccc23)cc1 the Activity (HL-60 [3]) was “Active” and the IC50 (HL-60 [2]) was 12.6 µM.
c1ccc(CNc2ncnc3[nH]cnc23)cc1 [6-BENZYLAMINOPURINE] showed an IC50 (HL-60 [2]) of over 100 µM.
For c1ccc(Nc2ccnc3[nH]ccc23)cc1, the Activity (HL-60 [3]) was “Active”, the IC50 (HL-60 [2]) was 23.5 µM and the Activity (HL-60 [4]) was 39.9%.
With c1ccc(N2CCN(c3ccnc4[nH]ccc34)CC2)cc1 the Activity (HL-60 [3]) was “Active” and the IC50 (HL-60 [2]) was 23.6 µM.
With c1ccc(CCNc2ccnc3[nH]ccc23)cc1 the Activity (HL-60 [3]) was “Active” and the IC50 (HL-60 [2]) was 23.7 µM.
Cn1ccc2c(Nc3ccccc3)ccnc21 was tested, and the Activity (HL-60 [1]) was “Active” and the IC50 (HL-60 [2]) was over 100 µM.
With Cn1ccc2c(NCc3ccccc3)ccnc21 the Activity (HL-60 [1]) was “Active” and the IC50 (HL-60 [2]) was over 100 µM.
c1coc(CNc2ncnc3[nH]cnc23)c1 [KINETIN] showed an IC50 (HL-60 [2]) of 21.9 µM.
Cn1ccc2c(N3CCN(c4ccccc4)CC3)ccnc21 was tested, and the Activity (HL-60 [1]) was “Active” and the IC50 (HL-60 [2]) was over 100 µM.
